Literature values in patent US4906471A (priority 1989, dated 1990).

Tests used:
[1] = system: trasient ischemic attacks; settings: in men; prior art statement

Row | Compound | incidence of transient ischemic attacks [1] | side effects at higher doses (patients) | side effects at usual dosage (patients; usual dosage, prior art statement) | side effects / toxic effects (patients) | side effects at low doses (patients)
1 | CC(=O)Oc1ccccc1C(=O)O [Aspirin] | decrease the incidence of trasient ischemic attacks | tinnitus, decreased hearing and vertigo | gastric intolerance |  | 
2 | Neomycin |  |  |  | high toxicity | nausea, abdonimal cramps, diarrhea and malabsorption
3 | colestipol |  |  |  | constipation and bloating sensation; some times hearburn and diarrhea | 
